Laboratory results from paper PMC4867230 (DNA repair, 2016).

How the values were obtained:
Experiment in all cases: kinetic fluorescence endonuclease assay, purified enzyme
Assay type in all cases: biochemical
R177A APE1 = R177A APE1 (Homo sapiens, UniProt P27695, R177A)
[1] = target: T1, apurinic/apyrimidinic endonuclease 1 (APE1) (Homo sapiens, UniProt P27695)
[2] = target: T1, apurinic/apyrimidinic endonuclease 1 (APE1); remark: listed apart in the source

T1 sequence (P27695 whole entry): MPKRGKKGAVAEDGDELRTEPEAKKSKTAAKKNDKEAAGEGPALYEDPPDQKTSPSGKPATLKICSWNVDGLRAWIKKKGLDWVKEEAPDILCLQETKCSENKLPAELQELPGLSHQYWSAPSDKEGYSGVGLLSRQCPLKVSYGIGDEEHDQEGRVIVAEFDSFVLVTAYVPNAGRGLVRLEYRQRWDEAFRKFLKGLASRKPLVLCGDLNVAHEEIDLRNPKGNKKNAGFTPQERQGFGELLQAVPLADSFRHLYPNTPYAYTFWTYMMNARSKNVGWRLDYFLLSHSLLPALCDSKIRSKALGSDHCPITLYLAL
Chain of R177A APE1 (P27695 whole entry R177A): as the sequence (P27695 whole entry) above, with R177A counted along it

| EC50 (R177A APE1) [nM] | EC50 [1] [nM] | IC50 [2] [nM] | Structure (SMILES) |
| --- | --- | --- | --- |
| 2200 | 820 |  | O=C(NCCO[N+](=O)[O-])c1cccnc1 [nicorandil] |
|  |  | 65000 | O=C(NCCO)c1cccnc1 [N-(2-hydroxyethyl)nicotinamide] |
